Experimental data reported in ChEMBL document CHEMBL1201862, “PubChem BioAssay data set” (2004).
Calls of active or inactive are those of the source.

Assays:
[1] = microbe, parasite or virus in culture; assay type: functional; details: Mycobacterium tuberculosis
[2] = cells; assay type: functional
[3] = target: FAD-linked sulfhydryl oxidase ALR (Homo sapiens, UniProt P55789); assay: inhibitors of human ALR sulfhydryl oxidase, dose response, biochemical, H2O2 detection, luminescence, cherry-pick (AID 493248)
[4] = growth suppression of beta-catenin-knockout colon cells, dose response, cell-based, HCT116, human colon tumor (AID 1045); assay type: functional;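 note: HCT116 colon tumor cells with beta catenin knocked out; cells exposed to compound for 60 hours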
[5] = growth suppression of PTEN-null colon cells, dose response, cell-based, HCT116 PTEN knockout (AID 1047); assay type: functional;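 note: HCT116 colon tumor cells with PTEN knocked out; cells exposed to compound for 60 hours before readout; potency for loss of cell viability measured by luminescence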
[6] = target: T1, Caspase-6 (Homo sapiens, UniProt P55212); assay: human caspase-6 inhibitors, dose response, biochemical, VEID-R110 fluorescence, cherry-pick (AID 720632)
T1 sequence (P55212 whole entry): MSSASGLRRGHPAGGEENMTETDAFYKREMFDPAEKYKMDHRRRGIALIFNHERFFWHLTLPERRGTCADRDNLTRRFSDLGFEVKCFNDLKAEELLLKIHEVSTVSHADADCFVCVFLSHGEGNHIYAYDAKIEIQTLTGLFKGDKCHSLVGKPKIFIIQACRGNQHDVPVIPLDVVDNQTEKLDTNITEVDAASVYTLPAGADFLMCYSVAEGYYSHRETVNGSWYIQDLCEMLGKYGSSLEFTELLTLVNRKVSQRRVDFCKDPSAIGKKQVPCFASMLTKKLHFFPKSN

[7] = target: T2, High affinity choline transporter 1 (Homo sapiens, UniProt Q9GZV3); assay: CHT inhibitors, dose response, cell-based, 5-point CRC, membrane potential dye (AID 504840); assay type: functional
T2 sequence (Q9GZV3 whole entry): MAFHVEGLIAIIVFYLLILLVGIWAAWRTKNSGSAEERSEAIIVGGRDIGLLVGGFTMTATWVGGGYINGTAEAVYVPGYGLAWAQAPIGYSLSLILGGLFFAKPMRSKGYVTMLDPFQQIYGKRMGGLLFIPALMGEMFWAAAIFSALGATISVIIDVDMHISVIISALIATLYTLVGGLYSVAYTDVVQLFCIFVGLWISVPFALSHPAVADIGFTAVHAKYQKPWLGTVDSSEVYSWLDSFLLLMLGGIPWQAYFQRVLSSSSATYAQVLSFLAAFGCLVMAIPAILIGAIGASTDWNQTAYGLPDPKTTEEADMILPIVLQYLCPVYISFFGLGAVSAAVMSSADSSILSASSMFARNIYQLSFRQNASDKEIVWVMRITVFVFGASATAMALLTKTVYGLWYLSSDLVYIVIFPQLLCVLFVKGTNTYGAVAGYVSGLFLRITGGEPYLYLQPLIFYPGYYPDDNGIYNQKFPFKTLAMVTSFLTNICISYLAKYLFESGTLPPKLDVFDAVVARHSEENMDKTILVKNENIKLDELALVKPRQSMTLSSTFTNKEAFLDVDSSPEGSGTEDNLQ

[8] = target: T3, Polyadenylate-binding protein 1 (Homo sapiens, UniProt P11940); assay: PABP1 MLLE–PAM2 binding inhibitor potency, dose response, biochemical, fluorescence polarization, FITC-PAM2 peptide (AID 602259); assay type: functional; details: read-out: IC50_Mean
[9] = target: T3, Polyadenylate-binding protein 1; assay: PABP1 MLLE–PAM2 interaction inhibitors, dose response, miRNA deadenylation inhibitor project, biochemical, fluorescence polarization, Cy5-PAM2 peptide, secondary (AID 602260); assay type: functional; details: read-out: IC50_Mean
[10] = inhibitors of intracellular T. cruzi replication, confirmation, NIH3T3 host cells, beta-gal luminescence (AID 2044); assay type: functional, cell-based;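 note: intracellular parasites grown in NIH/3T3 mouse fibroblasts as host cells; luminescent beta-galactosidase reporter signal from transgenic T. cruzi replicating inside host cells; inhibitors lower the luminescence signal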
[11] = cytotoxicity toward NIH3T3 fibroblasts, dose response, counter-screen, cell-based, ATP luminescence, mouse fibroblasts (AID 2010); assay type: functional;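 note: cells exposed to compound for about 90 hours before reading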
[12] = target: Glucose-6-phosphate 1-dehydrogenase (Homo sapiens, UniProt P11413); assay: human G6PD enzyme inhibitors, dose response, selectivity assay for P. falciparum G6PD inhibitor project, biochemical, fluorescence (AID 504792); assay type: functional
[13] = target: T4, Calpain-2 catalytic subunit (Sus scrofa, UniProt P43367); assay: pig calpain II inhibitor potency, dose response, biochemical, fluorogenic peptide substrate (AID 1420); assay type: functional
T4 sequence (P43367 whole entry): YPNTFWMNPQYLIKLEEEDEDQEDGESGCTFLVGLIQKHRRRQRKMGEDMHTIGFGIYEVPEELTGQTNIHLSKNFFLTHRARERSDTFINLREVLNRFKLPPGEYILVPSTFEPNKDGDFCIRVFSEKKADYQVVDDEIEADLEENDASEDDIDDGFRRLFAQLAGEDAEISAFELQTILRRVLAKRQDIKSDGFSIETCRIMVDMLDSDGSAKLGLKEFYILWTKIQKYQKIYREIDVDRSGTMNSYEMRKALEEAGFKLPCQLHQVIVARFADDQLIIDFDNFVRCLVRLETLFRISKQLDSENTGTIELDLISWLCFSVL

[14] = target: T5, Leucine aminopeptidase (Plasmodium falciparum 3D7, UniProt Q8IL11); assay: P. falciparum M17LAP inhibitors, primary screen, biochemical, fluorogenic H-Leu-NHMec substrate, 1536-well (AID 1619); assay type: functional
T5 sequence (Q8IL11 whole entry): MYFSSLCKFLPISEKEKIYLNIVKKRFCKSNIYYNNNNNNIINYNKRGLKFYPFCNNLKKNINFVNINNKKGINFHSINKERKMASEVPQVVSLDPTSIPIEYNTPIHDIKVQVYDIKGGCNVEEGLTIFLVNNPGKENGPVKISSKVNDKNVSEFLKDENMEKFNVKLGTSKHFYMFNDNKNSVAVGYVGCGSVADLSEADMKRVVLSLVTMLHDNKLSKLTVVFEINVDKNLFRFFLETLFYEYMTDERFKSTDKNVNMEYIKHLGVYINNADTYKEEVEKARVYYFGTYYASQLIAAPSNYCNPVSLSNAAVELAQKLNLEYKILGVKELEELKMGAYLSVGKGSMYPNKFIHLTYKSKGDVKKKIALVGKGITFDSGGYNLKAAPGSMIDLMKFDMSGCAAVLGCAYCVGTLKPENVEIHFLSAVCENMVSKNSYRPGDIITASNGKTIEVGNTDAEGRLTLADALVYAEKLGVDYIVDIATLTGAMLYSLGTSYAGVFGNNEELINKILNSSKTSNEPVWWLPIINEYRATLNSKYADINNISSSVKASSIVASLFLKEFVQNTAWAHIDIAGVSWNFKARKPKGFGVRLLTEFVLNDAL

[15] = system: Vero; assay: cells; assay type: functional; details: Chlorocebus sabaeus
[16] = inhibitors of SNCA 5'UTR-driven reporter translation, confirmation, H4 neuroglioma cells, luminescence (AID 1988); assay type: functional, cell-based
[17] = inhibitors of firefly luciferase expression or activity, dose response, H4 neuroglioma cells, luminescence (AID 1990); assay type: functional, cell-based

Sequence of FAD-linked sulfhydryl oxidase ALR (P55789 whole entry): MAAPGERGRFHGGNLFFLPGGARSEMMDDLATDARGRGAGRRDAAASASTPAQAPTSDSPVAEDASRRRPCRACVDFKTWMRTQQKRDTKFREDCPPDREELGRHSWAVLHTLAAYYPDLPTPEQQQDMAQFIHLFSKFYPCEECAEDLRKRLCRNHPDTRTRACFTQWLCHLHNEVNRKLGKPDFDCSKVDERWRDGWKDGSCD
T3 sequence (P11940 whole entry): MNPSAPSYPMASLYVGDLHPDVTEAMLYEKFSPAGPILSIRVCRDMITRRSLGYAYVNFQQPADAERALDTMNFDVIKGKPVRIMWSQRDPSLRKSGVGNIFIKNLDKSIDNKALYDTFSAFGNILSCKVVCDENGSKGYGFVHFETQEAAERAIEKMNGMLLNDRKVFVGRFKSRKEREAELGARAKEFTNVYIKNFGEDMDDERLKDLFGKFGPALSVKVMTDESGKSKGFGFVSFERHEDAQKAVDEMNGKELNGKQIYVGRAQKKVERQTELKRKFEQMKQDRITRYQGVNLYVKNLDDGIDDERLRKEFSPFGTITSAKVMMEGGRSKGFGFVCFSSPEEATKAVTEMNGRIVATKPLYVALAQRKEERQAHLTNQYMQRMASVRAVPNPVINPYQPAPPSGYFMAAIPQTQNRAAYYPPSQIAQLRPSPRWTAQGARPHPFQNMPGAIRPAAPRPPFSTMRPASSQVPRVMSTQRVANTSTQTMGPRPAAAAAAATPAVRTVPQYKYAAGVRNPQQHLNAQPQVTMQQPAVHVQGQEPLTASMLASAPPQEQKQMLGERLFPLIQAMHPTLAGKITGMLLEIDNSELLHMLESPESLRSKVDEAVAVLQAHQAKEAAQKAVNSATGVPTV
Sequence of Glucose-6-phosphate 1-dehydrogenase (P11413 whole entry): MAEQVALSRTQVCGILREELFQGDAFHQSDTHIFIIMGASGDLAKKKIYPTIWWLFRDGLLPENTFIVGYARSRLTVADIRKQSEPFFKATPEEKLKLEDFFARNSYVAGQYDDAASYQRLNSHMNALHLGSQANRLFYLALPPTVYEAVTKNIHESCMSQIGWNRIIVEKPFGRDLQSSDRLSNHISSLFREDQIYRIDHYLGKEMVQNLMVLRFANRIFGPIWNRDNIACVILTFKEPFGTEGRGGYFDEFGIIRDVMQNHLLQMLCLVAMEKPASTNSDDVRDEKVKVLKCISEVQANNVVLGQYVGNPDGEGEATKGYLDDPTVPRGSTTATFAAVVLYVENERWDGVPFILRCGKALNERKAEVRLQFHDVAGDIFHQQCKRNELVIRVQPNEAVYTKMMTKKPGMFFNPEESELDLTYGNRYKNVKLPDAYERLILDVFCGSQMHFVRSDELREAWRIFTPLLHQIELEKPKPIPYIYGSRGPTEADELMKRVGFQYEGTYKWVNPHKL

**Q.** Which CC50 [1] does the source give for Cc1ccc(-c2cc(C(F)(F)F)n3nc(C(=O)NCCCn4ccnc4)cc3n2)cc1C here?
**A.** Its CC50 is > 40 µM (active).

**Q.** What about the IC50 [2] of the same compound?
**A.** Its IC50 is > 50 µM (active).

**Q.** With Cc1ccc(CSC2=NCCN2C(=O)c2ccco2)cc1 as the compound, how does the AC50 [3] read?
**A.** Its AC50 is 2.85 µM (active).

**Q.** With O=C(NN/C=C1\C(=O)N(Cc2ccccc2)C(=O)c2ccccc21)c1cccnc1 as the compound, how does the AC50 [3] read?
**A.** The AC50 was 3.35 µM (active).

**Q.** For Cc1nc(-c2ccc(NC(=O)CC(C)C)cc2)cs1, which AC50 [3] is on record?
**A.** The AC50 was 2.38 µM (active).

**Q.** What does the source list for Cc1ccc(CSc2nc3ccncc3n2CC(=O)Nc2cc(C)cc(C)c2)cc1?
**A.** EC50 [4]: 30.7 µM (active); EC50 [5]: 26.3 µM (active)

**Q.** For O=C(Nc1cccc(Cl)c1)c1cccc(N2C(=O)C3CC=CCC3C2=O)c1 (stereo not given), which AC50 [6] is on record?
**A.** Its AC50 is 9.42 µM (active).

**Q.** For Cc1ccnc(NS(=O)(=O)c2ccc(NC(=O)c3ccc(Cl)cc3[N+](=O)[O-])cc2)n1, which IC50 [7] is on record?
**A.** Its IC50 is 13.2 µM (active).

**Q.** With O=C(NC(=S)NC(CO)Cc1ccccc1)c1ccc(F)cc1 (stereo not given) as the compound, how does the IC50 [8] read?
**A.** The IC50 was > 66 µM (inactive).

**Q.** And the IC50 [9]?
**A.** Its IC50 is > 66 µM (inactive).

**Q.** With O=S(=O)(c1ccc2[nH]c(-c3ccccc3)nc2c1)N1CCN(c2ccc(Cl)cc2)CC1 as the compound, how does the EC50 [4] read?
**A.** Its EC50 is 5.15 µM (active).

**Q.** And the EC50 [5]?
**A.** Its EC50 is 4.83 µM (active).

**Q.** Which EC50 [4] does the source give for O=C(NC(N=C(S)Nc1c(Cl)cccc1Cl)C(Cl)(Cl)Cl)c1cccc([N+](=O)[O-])c1 (stereo not given) here?
**A.** Its EC50 is 16.2 µM (active).

**Q.** And the EC50 [10]?
**A.** Its EC50 is 2.22 µM (active).

**Q.** What about the EC50 [11] of the same compound?
**A.** Its EC50 is > 60 µM (not active).

**Q.** And the EC50 [5]?
**A.** Its EC50 is 12.4 µM (active).

**Q.** Which IC50 [12] does the source give for O=C(CN1C(=O)C2C3C=CC(C3)C2C1=O)OCC(=O)c1ccc([N+](=O)[O-])cc1 (stereo not given) here?
**A.** Its IC50 is > 80 µM (inactive).

**Q.** For CC(OC(=O)c1oc2ccccc2c1CSC1CCCCC1)C(=O)NC(N)=O (stereo not given), which EC50 [4] is on record?
**A.** Its EC50 is 55.1 µM (active).

**Q.** And the EC50 [5]?
**A.** Its EC50 is 24.9 µM (active).

**Q.** What does the source list for Nc1n[nH]c(N)c1N=Nc1ccc(F)cc1?
**A.** IC50 [13]: 30.8 µM (not active); AC50 [3]: 2.29 µM (active); IC50 [14]: 8.11 µM (active)

**Q.** Which IC50 [7] does the source give for O=C1NC(c2ccccc2)=C(c2ccc3ccccc3n2)C(c2ccncc2)N1 (stereo not given) here?
**A.** Its IC50 is 4.57 µM (active).

**Q.** Which IC50 [8] does the source give for Fc1ccc(CN2CC[C@H]3C=CCc4cccc(c43)C2)cc1 here?
**A.** Its IC50 is > 66 µM (inactive).

**Q.** And the IC50 [9]?
**A.** The IC50 was > 66 µM (inactive).

**Q.** For NC(=O)c1oc2ccccc2c1NC(=O)c1ccc([N+](=O)[O-])o1, which CC50 [15] is on record?
**A.** The CC50 was 5.74 µM (active).

**Q.** What about the EC50 [16] of the same compound?
**A.** Its EC50 is 4.08 µM (active).

**Q.** What about the EC50 [17] of the same compound?
**A.** The EC50 was 8.49 µM (active).

**Q.** With O=C1/C(=C/c2cccc(Cl)c2)SC(=S)N1CCC(=O)N1CCCCC1CCO (stereo not given) as the compound, how does the CC50 [15] read?
**A.** The CC50 was 19.9 µM (active).
